Data: PubChem BioAssay (NCI)
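Five concentrations, 48 hours, 96-well plates. TGI marks complete inhibition of growth.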

How the values were obtained:
Assay in all cases: growth of human tumour cells (NCI), 48 h
[1] = tested on: DU-145 prostate
[2] = tested on: SK-MEL-5 melanoma
[3] = tested on: MDA-MB-231 breast
[4] = tested on: UACC-257 melanoma
[5] = tested on: RPMI-8226 leukemia
[6] = tested on: SK-MEL-28 melanoma
[7] = tested on: CAKI-1 renal
[8] = tested on: A498 renal
[9] = tested on: OVCAR-5 ovarian
[10] = tested on: SF-295 CNS
[11] = tested on: HL-60(TB) leukemia
[12] = tested on: HOP-92 NSCLC
[13] = tested on: 786-0 renal
[14] = tested on: IGROV1 ovarian
[15] = tested on: SF-268 CNS
[16] = tested on: HCC-2998 colon
[17] = tested on: SW-620 colon
[18] = tested on: HT29 colon
[19] = tested on: MCF7 breast
[20] = tested on: HS 578T breast
[21] = tested on: RXF 393 renal
[22] = tested on: SR leukemia
[23] = tested on: ACHN renal
[24] = tested on: HCT-15 colon
[25] = tested on: SF-539 CNS
[26] = tested on: K-562 leukemia
[27] = tested on: OVCAR-3 ovarian
[28] = tested on: NCI-H23 lung
[29] = tested on: MOLT-4 leukemia
[30] = tested on: TK-10 renal
[31] = tested on: U251 CNS
[32] = tested on: OVCAR-8 ovarian
[33] = tested on: T-47D breast
[34] = tested on: EKVX NSCLC
[35] = tested on: HCT-116 colon
[36] = tested on: NCI/ADR-RES ovarian
[37] = tested on: UO-31 renal
[38] = tested on: NCI-H460 lung
[39] = tested on: PC-3 prostate
[40] = tested on: NCI-H522 lung
[41] = tested on: M14 melanoma
[42] = tested on: HOP-62 NSCLC
[43] = tested on: KM12 colon
[44] = tested on: SK-MEL-2 melanoma
[45] = tested on: OVCAR-4 ovarian
[46] = tested on: NCI-H226 lung
[47] = tested on: MDA-MB-435
[48] = tested on: CCRF-CEM leukemia
[49] = tested on: LOX IMVI melanoma
[50] = tested on: SK-OV-3 ovarian
[51] = tested on: MDA-N
[52] = tested on: UACC-62 melanoma
[53] = tested on: SN12C renal
[54] = tested on: SNB-75 CNS
[55] = tested on: SNB-19 CNS
[56] = tested on: BT-549 breast
[57] = tested on: MALME-3M melanoma
[58] = tested on: COLO 205 colon
[59] = tested on: A549 NSCLC

CC1=NN(c2cccc(Cl)c2)C2(SCC(=O)N2c2nc3ccccc3s2)/C1=C\c1ccccc1O (configuration not stated)
TGI [1]: 42.2 µM
TGI [2]: 32.3 µM
TGI [3]: 67.9 µM
TGI [4]: > 100 µM
TGI [5]: 40.3 µM
TGI [6]: > 100 µM
TGI [7]: 57.5 µM
TGI [8]: 38.4 µM
TGI [9]: > 100 µM
TGI [10]: > 100 µM
TGI [11]: 52.1 µM
TGI [12]: 46.1 µM
TGI [13]: 32.3 µM
TGI [14]: 80.9 µM
TGI [15]: 64.7 µM
TGI [16]: 42 µM
TGI [17]: 35.8 µM
TGI [18]: 67.4 µM
TGI [19]: > 100 µM
TGI [20]: 65.5 µM
TGI [21]: 32.8 µM
TGI [22]: 37.5 µM
TGI [23]: 49 µM
TGI [24]: 34.1 µM
TGI [25]: > 100 µM
TGI [26]: > 100 µM
TGI [27]: 80.3 µM
TGI [28]: 41.3 µM
TGI [29]: 42.3 µM
TGI [30]: > 100 µM
TGI [31]: 53.5 µM
TGI [32]: 42 µM
TGI [33]: 37.9 µM
TGI [34]: > 100 µM
TGI [35]: 28.2 µM
TGI [36]: 55.5 µM
TGI [37]: 38.5 µM
TGI [38]: > 100 µM
TGI [39]: 61.1 µM
TGI [40]: 42.4 µM
TGI [41]: 55.4 µM
TGI [42]: 54.7 µM
TGI [43]: 45.1 µM
TGI [44]: 44.2 µM
TGI [45]: > 100 µM
TGI [46]: > 100 µM
TGI [47]: 60.2 µM
TGI [48]: > 100 µM
TGI [49]: > 100 µM
TGI [50]: 51.3 µM
TGI [51]: 53.4 µM

CCOC(=O)Cn1c(=O)c2nc(SC)sc2n(-c2ccccc2)c1=O
TGI [2]: > 100 µM
TGI [3]: > 100 µM
TGI [4]: > 100 µM
TGI [5]: > 100 µM
TGI [6]: > 100 µM
TGI [8]: > 100 µM
TGI [9]: > 100 µM
TGI [11]: > 100 µM
TGI [12]: > 100 µM
TGI [13]: > 100 µM
TGI [14]: > 100 µM
TGI [52]: > 100 µM
TGI [16]: > 100 µM
TGI [17]: > 100 µM
TGI [18]: > 100 µM
TGI [53]: > 100 µM
TGI [19]: > 100 µM
TGI [54]: > 100 µM
TGI [20]: > 100 µM
TGI [21]: > 100 µM
TGI [55]: > 100 µM
TGI [22]: > 100 µM
TGI [23]: > 100 µM
TGI [24]: > 100 µM
TGI [26]: > 100 µM
TGI [28]: > 100 µM
TGI [29]: > 100 µM
TGI [30]: > 100 µM
TGI [31]: > 100 µM
TGI [32]: > 100 µM
TGI [56]: > 100 µM
TGI [34]: > 100 µM
TGI [35]: > 100 µM
TGI [37]: > 100 µM
TGI [38]: > 100 µM
TGI [39]: > 100 µM
TGI [41]: > 100 µM
TGI [42]: > 100 µM
TGI [43]: > 100 µM
TGI [44]: > 100 µM
TGI [57]: > 100 µM
TGI [58]: > 100 µM
TGI [46]: > 100 µM
TGI [48]: > 100 µM
TGI [51]: > 100 µM
TGI [59]: > 100 µM
